Assays:
[1] = test system: phosphorylated ATM, γH2AX, cleaved PARP in Raji cells; experiment: Western blot of phospho-ATM, γH2AX and cleaved PARP; assay type: cell-based, human; details: 0.5 μM
Description: (§1) The structure of COMPOUND I is similar to drugs that bind to quadruplex structures in DNA which results in strand breaks; this led to the investigation of whether COMPOUND I caused damage to DNA. The parental Raji cells were treated with 0.5 μM COMPOUND I for increasing periods of time and induction of DNA damage was assessed by accumulation of the phosphorylated forms of ATM and γH2AX measured by Western blot analysis. […] Raji cells have very small nuclei making it difficult to quantify the formation of γH2AX foci, so the human ovarian carcinoma cell line CAOV3 was used for this purpose. […] Evidence of DNA damage was further strengthened by the results of the neutral comet assay which mainly detects DNA double strand breaks (FIG. 2D).

[2] = test system: DNA double strand breaks in CAOV3 cells; experiment: Neutral comet assay; assay type: cell-based, human
Description: Comet assay kits were purchased from Trevigen (Gaithersburg, Md.) and neutral comet assay was performed according to the manufacturer's instructions. Images were collected with a Keyence Fluorescent Microscope (Keyence America, Itasca, Ill.) and quantitated with OpenComet software.
as §1

[3] = test system: AML cell lines and various forms of lymphoma cell lines; experiment: Cytotoxicity study (MTS), cell line panel; assay type: cell-based; details: inhibition of proliferation; read-out: IC50 values, range over cell lines
Description: Cells were plated and treated with vehicle DMSO or COMPOUND I (10 concentrations) in 96-well plates for 5 days at 37° C. and 5% CO2. Cell viability was measured using CellTiter 96 AQueous one solution (MTS) cell proliferation assay (Promega, catalog #G3581), and IC50 values were calculated using GraphPad Prism 7 software.
Previous studies reported upregulation of KLF4 and CDKN1A expression as a potential mechanism of APT0-COMPOUND I activity in tumors. […] The upregulation of CDKN1A mRNA increased with duration of exposure in all AML cell lines tested (FIGS. 15D and 15E). At later time points, CDKN1A expression began to decrease, likely due to increasing cell death. Induction of CDKN1A expression is typically associated with a subsequent G0-G1, cell-cycle arrest, which was observed following COMPOUND I treatment of solid tumor lines.

[4] = test system: AML cells (MV4-11, KG-1, EOL-1); experiment: Flow cytometry cell-cycle analysis, time course; assay type: cell-based; details: IC50 concentration
Description: Cells were treated as described above. To determine apoptosis, cells were stained with FITC-Annexin V and propidium iodide (PI; BD Pharmingen, catalog #556570) and then analyzed on BD Accuri C6 flow cytometer. To measure DNA synthesis and phases of cell cycle, treated cells were stained with 5-ethynyl-2′-deoxyuridine (Edu) Alexa Fluor 488 (Thermo Fisher Scientific, catalog #C10425) and PI (PI/RNase A staining solution, BD Biosciences, catalog #550825). The dead cells were excluded from analysis by using Live/Dead Fixable Far Red Dead Cell Stain Kit (Thermo Fisher Scientific, catalog #L34973). Staining was performed as per the manufacturers' instructions.
There was no perturbation of cell-cycle phase distribution in cells treated with vehicle alone. An increase in the fraction of cells in G0-G1 was detected as early as 2 hours, and this fraction continued to increase in a time-dependent manner throughout the 24-hour period of drug exposure (FIGS. 9D-F).

[5] = test system: gene expression in MV4-11 cells; experiment: RNA sequencing differential expression analysis; assay type: cell-based
Description: Treated MV4-11 cells were subjected to total RNA extraction (as for qRT-PCR analysis) and sequenced at the UCSD genomics core facility. RNA was processed using Illumina TruSeq and single end sequenced for 50-bp reads on the Illumina HiSeq4000. Data were analyzed by the McWeeny lab at Oregon Health and Science University (Portland, Oreg.). FASTQ files were assessed for read base distribution and sequence representation using FASTQC http://www.bioinformatics.babraham.ac.uk/projects/fastqc/. Reads were aligned to HG37 using SubRead v1.5.0-pl keeping uniquely mapped reads. Differential expression genes with less than 50 reads (across all 4 samples) were discarded. Raw data and processed files are available on GEO (https://www.ncbi.nlm.nih.gov/geo/query/acc.cgi?acc=GSE111949) accession number GSE111949.
To gain further insight into the pathways exploited by COMPOUND I to cause cell-cycle arrest and apoptosis, differential expression analysis was performed at both the mRNA and protein levels. MV4-11 cells were treated with either vehicle or 500 nmol/L COMPOUND I for 6 hours, and then gene expression was analyzed by RNA-seq. […] The RNA-seq analysis detected a 2-fold increase in KLF4 and a 4.5-fold increase in CDKN1A expression, which is validated by the qRT-PCR data with MV4-11 cells. The differentially regulated genes were analyzed for enriched pathways or GO (Gene Ontology) terms (FIG. 18A) utilizing the Broad Molecular Signatures database (http://software.broadinstitute.org/gsea/msigdb/index.jsp). As expected, apoptotic and cell-cycle pathways were enriched in the differentially expressed gene set. Unexpectedly, gene expression profiles after COMPOUND I treatment were also enriched in the DNA damage response (DDR) and endoplasmic reticulum (ER) stress/unfolded protein response pathways. […] Gene expression changes detected in MV4-11 cells raised the possibility that COMPOUND I could cause apoptosis by inducing DNA damage and activating cellular stress pathways, and/or by inhibition of expression of the MYC oncogene.

[6] = test system: MYC mRNA stability in EOL-1 cells; experiment: RNA decay assay; assay type: cell-based; details: 500 nmol/L 3 hours, then 1 μmol/L actinomycin D
Description: Cells were treated for 3 hours with vehicle DMSO or 500 nmol/L COMPOUND I followed by 1 μmol/L actinomycin D. Aliquots of cells were taken before and then every 10 minutes after actinomycin D addition for RNA extraction and cDNA synthesis as for qRT-PCR analysis. Levels of MYC and 28s rRNA were analyzed using specific primers (Table 8) and MYC RNA expression was normalized to 28 s rRNA [2^(28 s Ct value−MYC Ct value)].
Regulation of MYC expression is a complex process that involves MYC transcription, mRNA stability, and protein turnover. ChIP-qPCR analysis for H3K27ac, a well-established marker of active chromatin, was performed to assess transcriptional competency of the MYC gene promoter after treatment with COMPOUND I (FIG. 19D). […] To determine whether COMPOUND I affected MYC mRNA stability, an RNA decay assay was performed on EOL-1 cells.

Cc1[nH]c2ccc(F)cc2c1-c1nc2c3cccnc3c3ncccc3c2[nH]1 [COMPOUND I, 2-(5-fluoro-2-methyl-1H-indol-3-yl)-1H-imidazo[4,5-f][1,10]phenanthroline]
cleavage of PARP ([1]; time course): detected starting at 8 h | phosphorylated ATM and γH2AX accumulation ([1]; up to 24 h): clear increase in phosphorylated ATM and γH2AX starting at 6 h | tail DNA vs DMSO ([2]; 0.5 μM, 6 h): no increase in tail DNA | DNA in comet tails ([2]; 6 h treatment then 18 h drug free media (pulse-chase)): significantly more DNA in the comet tails | IC50 [3]: 57 to 1750 nM | earliest time an increase in the fraction of cells in G0-G1 was detected [4]: 2 h | genes differentially regulated (>2-fold change and P<0.05) ([5]; 500 nmol/L, 6 hours): 1,643 genes | genes downregulated ([5]; 500 nmol/L, 6 hours): 1,227 genes | genes upregulated ([5]; 500 nmol/L, 6 hours): 416 genes | increase in BBC3 ([5]; 500 nmol/L, 6 hours): 3.95 fold | increase in CDKN1A expression ([5]; 500 nmol/L, 6 hours): 4.5 fold | increase in KLF4 expression ([5]; 500 nmol/L, 6 hours): 2 fold | increase in PMAIP1 ([5]; 500 nmol/L, 6 hours): 1.38 fold | KIT expression ([5]; 6-hour treatment): decreased | MYC expression ([5]; 6 hours): downregulated | MYC mRNA levels in pretreated cells versus vehicle [6]: clear decrease in MYC mRNA levels

— patent US11149047B2, “Aryl imidazoles for treatment of cancer” (Aptose Biosciences Inc., priority 2017, dated 2021)
